Measurements taken from patent US12194046B2 (priority 2021, dated 2025).

Assays:
human hepatocytes = system: human hepatocytes
Description: Cryopreserved human hepatocytes were thawed and suspended into 50 ml of InVitro GRO HT-medium. The cells were centrifuged (50 g, 5 min) and resuspended into InVitro GRO KHB-medium (protein free). The cell density and viability were determined by trypan blue exclusion method.
Instrumentation: Waters Acquity UPLC+Waters TQ-S triple quadrupole MS; Column: Phenomenex Kinetex Biphenyl (2.1×100 mm, 1.8 μm) column with guard filter; Software: MassLynx 4.2.
The samples were analysed at 0, 30, 60, 90, and 120 minutes (with and without hepatocytes) by LC/MS/MS to monitor substrate depletion and formation of metabolites theophylline, theobromine and paraxanthine.

[1] = Pharmacokinetic study: plasma and brain concentrations after a single oral (gavage) dose in rats; format: in vivo, Sprague-Dawley rats; settings: oral gavage 2 mg/kg
Text: Serial blood samples were collected from three animals per group per timepoint prior to dosing and at 0.25, 0.5, 1, 2, 3 4, 6, 8, 10, 12, and 14-hours post dose. No more than three blood samples were collected from individual animals with the last sample being a terminal blood draw. Terminal brain samples were collected from three animals per group at 1, 4, 8, and 14-hours post dose. Blood samples were collected into tubes containing sodium heparin, and then processed for plasma and stored frozen until bioanalysis. Brain samples were collected following the terminal blood collection, rinsed with saline, and stored frozen until bioanalysis.
Non-compartmental pharmacokinetic parameter estimates were calculated from the mean plasma concentration-time data.
Animals were fasted overnight prior to dose administration. Water was provided ad libitum. Food was returned after the collection of the 4-hour samples.
Prior to dosing, the body weight of each animal was recorded. Doses (rounded to the nearest 0.001 mL) were calculated based on the pretreatment body weight (kg) and a dose volume of 10 mL/kg. […] Dosing syringes were weighed immediately prior to and immediately after dosing each animal, and the quantity of formulation administered to each animal was determined from the difference in syringe weights.
Immediately after the 1, 4, 8 and 14-hour blood collections, three animals/group were euthanized and the brain was dissected out of each rat. […] Brain weights were calculated for each sample. […]
The concentration-time data were analyzed to fit an extra-vascular (oral gavage) dosing plasma analysis model (200) using the software WinNonlin Phoenix version 6.3 (Pharsight).
Areas-under-the-plasma concentration-time curves (AUC) were estimated using the linear trapezoidal rule. […] Apparent T1/2 was calculated using the slope of the log-linear terminal phase of the concentration-time curve, defined by a minimum of three plasma concentration-time points. Half-lives are reported if the correlation for the regression line, as measured by r squared, is ≥0.9, when rounded.

clinical = settings: both, human, in vivo, po

With `Cn1c(=O)c2c(ncn2C)n(C)c1=O` [caffeine, reference compound] the “formation of metabolite theobromine” value (human hepatocytes) was “not detected”, the “substrate depletion (disappearance)” value (human hepatocytes) was “No clear disappearance” and the “Cmax, corr (molecular weight corrected)” value ([1]; rat plasma, caffeine values multiplied by 0.956) was 2486 ng/mL. The half-life (clinical; 50 mg) was 5.41 h, the AUC(0-t) (clinical; 52.3 mg) was 47.2 µM·h and the Cmax (clinical; 52.3 mg) was 5.32 µM. For the same compound, the MRT (clinical; 52.3 mg) was 7.3 h, the half-life (clinical; 250 mg) was 4.25 h and the AUC(0-t) (clinical; 261.7 mg) was 206 µM·h. The Cmax (clinical; 261.7 mg) was 25.1 µM and the MRT (clinical; 261.7 mg) was 4.3 h.
With `[2H]C([2H])([2H])n1c(=O)c2c(ncn2C([2H])([2H])[2H])n(C([2H])([2H])[2H])c1=O` [d9-caffeine, 1,3,7-tri-trideuteromethylxanthine] the “formation of metabolite theobromine” value (human hepatocytes) was “not detected”, the “substrate depletion (disappearance)” value (human hepatocytes) was “No clear disappearance” and the “total brain exposure (AUClast,corr) higher than caffeine” value ([1]; rat brain, molecular weight corrected) was “approximately 52%”. The “total systemic exposure (AUCinf) higher than caffeine” value ([1]; rat plasma, molecular weight corrected) was “approximately 77%”, the half-life (clinical; 50 mg) was 32.2 h and the AUC(0-t) (clinical; 52.3 mg) was 192 µM·h. For the same compound, the Cmax (clinical; 52.3 mg) was 6.62 µM, the MRT (clinical; 52.3 mg) was 19.7 h and the half-life (clinical; 250 mg) was 25.6 h. For the same compound, the AUC(0-t) (clinical; 261.7 mg) was 972 µM·h, the Cmax (clinical; 261.7 mg) was 36.5 µM and the MRT (clinical; 261.7 mg) was 18.9 h.
